Reference: PubChem BioAssay AID248 (DTP/NCI, 2004)
“And” between values parts separate entries of the source, which are not always exact repeats. Equal values may be shown once. Toxic doses and inconclusive results are not listed. No stated cut-off is given here; in the data, active means T/C of 150% or more; inactive means T/C below 125%.

System: L1210 leukemia ip in BDF1 mice, survival T/C
Assay: NCI In Vivo Anticancer Drug Screen. Data for tumor model L1210 Leukemia (intraperitoneal) in B6D2F1 (BDF1) mice
Details: higher = longer survival
Method in brief: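 Read-out is survival time, reported as the treated-group measurement over the vehicle-control measurement.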

Measured: T/C

CNNCc1ccc(C(=O)NC(C)C)cc1
active: endpoint: mean survival time, dose: 25.0 mg/kg/injection, schedule: Q#A X020 (ip), vehicle: saline 151 % of control | endpoint: mean survival time, dose: 50.0 mg/kg/injection, schedule: Q#A X020 (ip), vehicle: saline 157 % of control | endpoint: mean survival time, dose: 62.0 mg/kg/injection, schedule: Q01DX009 (ip), vehicle: saline 155 % of control | endpoint: mean survival time, dose: 64.0 mg/kg/injection, schedule: Q03HX024 (ip), vehicle: saline 157 % of control | endpoint: mean survival time, dose: 100.0 mg/kg/injection, schedule: Q01DX010 (ip), vehicle: saline 151 % of control | endpoint: mean survival time, dose: 100.0 mg/kg/injection, schedule: Q01DX010 (oral), vehicle: saline 159 % of control | endpoint: mean survival time, dose: 125.0 mg/kg/injection, schedule: Q01DX009 (ip), vehicle: clinical formulation 158 % of control | endpoint: mean survival time, dose: 125.0 mg/kg/injection, schedule: Q01DX009 (ip), vehicle: saline 167 % of control | endpoint: mean survival time, dose: 128.0 mg/kg/injection, schedule: Q01DX009 (oral), vehicle: saline 155 % of control and 164 % of control | endpoint: mean survival time, dose: 133.0 mg/kg/injection, schedule: Q01DX009 (ip), vehicle: saline 150 % of control | endpoint: mean survival time, dose: 150.0 mg/kg/injection, schedule: Q01DX009 (ip), vehicle: saline 159 % of control | endpoint: mean survival time, dose: 250.0 mg/kg/injection, schedule: Q01DX009 (ip), vehicle: clinical formulation 184 % of control | endpoint: mean survival time, dose: 250.0 mg/kg/injection, schedule: Q01DX009 (ip), vehicle: water 188 % of control | endpoint: mean survival time, dose: 300.0 mg/kg/injection, schedule: Q01DX009 (ip), vehicle: saline 166 % of control | endpoint: mean survival time, dose: 512.0 mg/kg/injection, schedule: Q04DX003 (ip), vehicle: saline 155 % of control | endpoint: mean survival time, dose: 512.0 mg/kg/injection, schedule: Q04DX003 (oral), vehicle: saline 151 % of control | endpoint: median survival time, dose: 300.0 mg/kg/injection, schedule: Q01DX009 (ip), vehicle: saline 166 % of control and 170 % of control
inactive: endpoint: mean survival time, dose: 6.5 mg/kg/injection, schedule: Q01DX009 (ip), vehicle: saline 110 % of control and 112 % of control | endpoint: mean survival time, dose: 8.0 mg/kg/injection, schedule: Q01DX009 (ip), vehicle: saline 121 % of control | endpoint: mean survival time, dose: 12.0 mg/kg/injection, schedule: Q04DX002 (ip), vehicle: saline 93 % of control and 91 % of control | endpoint: mean survival time, dose: 13.0 mg/kg/injection, schedule: Q01DX Z (ip), vehicle: saline 117 % of control | endpoint: mean survival time, dose: 16.0 mg/kg/injection, schedule: Q01DX009 (oral), vehicle: saline 116 % of control | endpoint: mean survival time, dose: 16.0 mg/kg/injection, schedule: Q03HX008 (ip), vehicle: saline 106 % of control | endpoint: mean survival time, dose: 16.0 mg/kg/injection, schedule: Q03HX016 (ip), vehicle: saline 112 % of control | endpoint: mean survival time, dose: 16.0 mg/kg/injection, schedule: Q03HX016 (oral), vehicle: saline 106 % of control | endpoint: mean survival time, dose: 19.0 mg/kg/injection, schedule: Q01DX Z (ip), vehicle: saline 117 % of control | endpoint: mean survival time, dose: 24.0 mg/kg/injection, schedule: Q04DX002 (ip), vehicle: saline 97 % of control | endpoint: mean survival time, dose: 25.0 mg/kg/injection, schedule: Q01DX009 (ip), vehicle: saline 110 % of control and 117 % of control | endpoint: mean survival time, dose: 32.0 mg/kg/injection, schedule: Q03HX008 (ip), vehicle: saline 112 % of control | endpoint: mean survival time, dose: 32.0 mg/kg/injection, schedule: Q03HX016 (ip), vehicle: saline 117 % of control | endpoint: mean survival time, dose: 37.5 mg/kg/injection, schedule: Q01DX009 (ip), vehicle: saline 120 % of control and 123 % of control | endpoint: mean survival time, dose: 64.0 mg/kg/injection, schedule: Q03HX008 (ip), vehicle: saline 110 % of control | endpoint: mean survival time, dose: 128.0 mg/kg/injection, schedule: Q01DX001 (ip), vehicle: saline 109 % of control | endpoint: mean survival time, dose: 128.0 mg/kg/injection, schedule: Q01DX001 (iv), vehicle: saline 104 % of control | endpoint: mean survival time, dose: 128.0 mg/kg/injection, schedule: Q01DX001 (oral), vehicle: saline 106 % of control | endpoint: mean survival time, dose: 128.0 mg/kg/injection, schedule: Q03HX008 (ip), vehicle: saline 121 % of control | endpoint: mean survival time, dose: 128.0 mg/kg/injection, schedule: Q04DX003 (ip), vehicle: saline 121 % of control | endpoint: mean survival time, dose: 128.0 mg/kg/injection, schedule: Q08DX002 (oral), vehicle: saline 106 % of control | endpoint: mean survival time, dose: 250.0 mg/kg/injection, schedule: Q01DX001 (ip), vehicle: saline 112 % of control and 121 % of control | endpoint: mean survival time, dose: 256.0 mg/kg/injection, schedule: Q01DX001 (iv), vehicle: saline 99 % of control | endpoint: mean survival time, dose: 256.0 mg/kg/injection, schedule: Q01DX001 (oral), vehicle: saline 110 % of control | endpoint: mean survival time, dose: 256.0 mg/kg/injection, schedule: Q08DX002 (ip), vehicle: saline 104 % of control | endpoint: mean survival time, dose: 320.0 mg/kg/injection, schedule: Q01DX010 (oral), vehicle: saline 117 % of control | endpoint: mean survival time, dose: 400.0 mg/kg/injection, schedule: Q01DX010 (im), vehicle: saline 86 % of control | endpoint: mean survival time, dose: 400.0 mg/kg/injection, schedule: Q01DX010 (oral), vehicle: saline 116 % of control | endpoint: mean survival time, dose: 400.0 mg/kg/injection, schedule: Q01DX010 (sc), vehicle: saline 90 % of control | endpoint: mean survival time, dose: 758.0 mg/kg/injection, schedule: Q04DX002 (ip), vehicle: saline 103 % of control | endpoint: median survival time, dose: 500.0 mg/kg/injection, schedule: Q01DX009 (ip), vehicle: saline 49 % of control and 54 % of control
